Values quoted from earlier work, collected in patent US7115628B2, “Bridged piperidine derivatives as melanocortin receptor agonists” (Merck & Co., Inc., priority 2001, dated 2006).

Tests used:
[1] = system: patients with erectile dysfunction; settings: for duration of effect / onset of action: after an oral dose; for share of men/patients in whom effective (adequate response): oral
[2] = system: males with psychogenic erectile dysfunction
[3] = subcutaneous injection formulation

Molecule: CCCc1nn(C)c2c(=O)[nH]c(-c3cc(S(=O)(=O)N4CCN(C)CC4)ccc3OCC)nc12 [Sildenafil, sildenafil]
- duration of effect [1]: about 4 hours
- onset of action [1]: 30 to 60 min
- share of men/patients in whom effective (adequate response) [1]: about 70%

Molecule: Cc1ccc(N(CC2=NCCN2)c2cccc(O)c2)cc1 [phentolamine]
- duration of effect [1]: 2 h
- onset of action [1]: 5 to 30 min
- share of men/patients in whom effective (adequate response) [1]: 35–40%

Molecule: Ac-Nle-c[Asp-His-DPhe-Arg-Trp-Lys]-NH2 [MT-II]
- absorption into the systemic circulation ([2]; in vivo, po): not absorbed into the systemic circulation
- response rate ([2]; injected intramuscularly or subcutaneously): 75%
- duration of action [2, 3]: approximately 2.5 hours
- time to onset of erection [2, 3]: 10 to 20 min
